Consider three compounds from US20240343819A1, “METHODS OF TREATING MULTIPLE MYELOMA” (Seagen Inc., priority 2021, published 2024).

Values joined by “and” are separate entries in the source; they are usually repeats but may differ in a detail not shown here. Identical values can stand only once.

For data set [1], the system named is NCI-H929 cells. Nature of the data set: BCMA expression by flow cytometry after GSI incubation. The note with it: 1 μM DAPT, 24 hrs, vs without. The format is cell-based.
Data set [2] relates to Molp-8 cells. The data set is described as above. The class given is cell-based. The note with it: 1 μM DAPT, 24 hrs, vs without.
Data set [3] relates to Molp-8 cells. Nature of the data set: FcγRIII signaling surrogate assay (Promega ADCC reporter bioassay, CD16A-Jurkat effector cells). The note with it: antibody dose titrations +/- GSI (DAPT), 6:1 effector-to-target ratio, overnight. The format is cell-based. The method, then: (§1) NCI-H929 or Molp-8 MM target cells were incubated with and without 1 μM DAPT for 24 hrs. […] FcγRIII signaling was determined using a surrogate assay as manufacturer describes (Promega ADCC reporter bioassay cat #G9302). Cells were bound with antibody dose titrations+/−GSI for 30 minutes at 37° C. CD16A-Jurkat effector cells were then added with a 6:1 effector-to-target cell ratio. After an overnight incubation, the assay was developed with Bio-Glo and relative luminescence units (RLU) were measured on an Envision plate reader. […] Enhanced signaling is the first step in the primary mechanism of action of SEA-BCMA. This signaling can translate to increased anti-MM cell lysis through ADCC.

The subject of data set [4] is NCI-H929 cells. Described as above. The format is cell-based. The settings on record: antibody dose titrations +/- GSI (DAPT), 6:1 effector-to-target ratio, overnight. The procedure: as §1
Data set [5] concerns Multiple myeloma cells. Nature of the data set: BCMA expression after nirogacestat incubation. The class given is cell-based. The note with it: 0.2 μM nirogacestat, 24 hours, vs without. The source says:
(§2) These pre-clinical data supported the combination of SEA-BCMA with nirogacestat in clinical studies.

The next data set has as its system U266. Put plainly: BCMA expression by flow cytometry after Nirogacestat incubation. The format is cell-based. The settings on record: 0.2 μM Nirogacestat, 24 hrs.
Data set [6] deals with Multiple myeloma cells. Nature of the data set: ADCC with NK effector cells enriched from normal donor PBMC. The settings on record: nirogacestat treated multiple myeloma cells combined with NK effector cells. The class given is cell-based.
Description: as §2

The test system of a further data set is Molp-8 MM target cells. Nature of the data set: ADCC 51Cr release assay with donor NK cells. The class given is cell-based. The note with it: SEA-BCMA titrations, 0.2 μM Nirogacestat vs without, NK:target 10:1, 4h, FcγRIII V/V donor. The method, then:
Whether the enhanced FcγRIII signaling translated to increased lysis of MM target cells by SEA-BCMA was determined. Molp-8 MM target cells were incubated with and without 0.2 μM Nirogacestat (purchased from SelleckChem) for 24 hrs. Cells were then Na2 [^51Cr] O4 labeled and added to titrations of SEA-BCMA, or isotype antibody control. Effector cells, NK cells enriched from normal donor PBMC, were added at an effector-to-target cell ratio of 10:1 (50,000:5000). Donor NK cells were of the high affinity FcγRIII V/V genotype. The combination of antibodies, NK cells and target cells were incubated for 4h at 37° C. with and without Nirogacestat. The radioactivity released into the culture supernatant of lysed target cells was then measured and the percent specific cell lysis calculated. […] This is the primary of mechanism of action of SEA-BCMA and translates to specific enhanced anti-MM lysis. It is expected that this will translate to improvements in anti-MM activity in the clinic when SEA-BCMA is combined with GSIs.

Data set [7] relates to BCMA-expressing NCI-H929 cells. Nature of the data set: NF-κB p65 activity ELISA of nuclear extract (TransAM NFκB Chemi p65). The format is cell-based. The procedure:
The secondary mechanism of action of SEA-BCMA is to block BCMA proliferative cell signaling. Increased BCMA from GSI treatment is expected to induce increased BCMA signaling. Therefore, the block of this enhanced signaling by SEA-BCMA was tested. BCMA-expressing NCI-H929 cells were serum-starved with and without 0.2 μM Nirogacestat (purchased from SelleckChem) for 16 hrs. Cells were then bound with and without 20 μg/mL SEA-BCMA and incubated with and without 1 μg/ml recombinant human APRIL (R&D Systems) for 20 minutes at 37° C. in the presence or absence of 0.2 μM Nirogacestat. 1 μg of nuclear extract was assayed in duplicate for NF-κB p65 activity by ELISA (TransAM NFκB Chemi p65, Active Motif).

The conditions of data set [8]: 100 mg BID dose; cited from earlier work.
For a further data set, the system named is patients. The settings on record: cited from earlier work.
The next data set has as its target FcγRIII (Homo sapiens, UniProt P08637). Nature of the data set: FcγRIII binding affinity versus fucosylated anti-BCMA antibodies. The settings on record: in comparison to fucosylated anti-BCMA antibodies.
Setting [9] is: patients receiving nirogacestat.

FcγRIII, sequence (P08637 17-254): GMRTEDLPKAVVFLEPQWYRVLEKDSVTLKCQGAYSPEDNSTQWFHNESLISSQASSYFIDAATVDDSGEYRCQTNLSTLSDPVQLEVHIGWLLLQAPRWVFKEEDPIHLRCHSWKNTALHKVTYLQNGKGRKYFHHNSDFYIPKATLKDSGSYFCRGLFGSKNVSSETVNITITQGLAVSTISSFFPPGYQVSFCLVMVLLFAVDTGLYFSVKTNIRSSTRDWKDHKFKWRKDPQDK
Description for patients with RRMM: This study evaluated the safety and antitumor activity of SEA-BCMA in patients with RRMM.
The monotherapy dose-escalation portion of the trial was conducted in approximately 25 patients.
Enrollment in this study occurred on a cohort-by-cohort basis. Multiple cohorts were treated at each dose level, with a maximum of 4 patients treated per cohort. Decisions on dose escalation and subsequent cohort size were made in consultation with the safety monitoring committee (SMC) after completion of each cohort. […] In addition, as a precaution, for the first 2 patients in the study there was a 72-hour observation period before the next patient can be dosed. At dose levels above Dose Level 1, a 24-hour observation period was required after the first patient received their first dose of SEA-BCMA, prior to dosing subsequent patients at that dose level. […] Patients who were considered not evaluable for DLT during Cycle 1 were replaced. […] The MTD or optimal dose was estimated based on data from all patients across all evaluated doses.
SEA-BCMA was initially administered once every 2 weeks (q2wk) in 4-week cycles at the planned doses shown in Table 2; a dosing interval of every 4 weeks (q4wk) was explored.
To further characterize the safety and antitumor activity of SEA-BCMA, an expansion cohort of up to approximately 40 patients were enrolled.
The DLT-evaluation period was the first cycle of treatment. […] In the event of a Grade 3 IRR in ≥20% of patients (i.e., 2 or more in the first 10 patients), all subsequent patients will require premedication and/or modification of infusion approach per the recommendation of the SMC.

As for `C[C@H](NC(=O)Cc1cc(F)cc(F)c1)C(=O)N[C@H](C(=O)OC(C)(C)C)c1ccccc1` [DAPT], the BCMA expression entry with NCI-H929 cells [1] and with Molp-8 cells [2] was “increased BCMA expression” in each case. Further, the FcγRIII signaling result in the data set with Molp-8 cells [3] and in the data set on NCI-H929 cells [4] was “increased FcγRIII signaling” in each case.
On to `CCC[C@H](N[C@H]1CCc2cc(F)cc(F)c2C1)C(=O)Nc1cn(C(C)(C)CNCC(C)(C)C)cn1` [nirogacestat, (S)-2-(((S)-6,8-difluoro-1,2,3,4-tetrahydronaphthalen-2-yl)amino)-N-(1-(2-methyl-1-(neopentylamino)propan-2-yl)-1H-imidazol-4-yl)pentanamide], for which the BCMA expression result in the data set on Multiple myeloma cells [5] is reported as “increased BCMA expression”. Moreover, in the data set on U266, the BCMA expression result was “increased BCMA expression”. Further, the ADCC entry in the data set with Multiple myeloma cells [6] was “increased ADCC”. For the same compound, the “ADCC (percent specific cell lysis)” value in the data set with Molp-8 MM target cells was “Increased ADCC”. For the same compound, the “NF-κB p65 signaling (RLU)” value in [7] (0.2 μM Nirogacestat 16 hrs serum-starved, +/- 1 μg/ml APRIL 20 minutes) is “increased NF-κB signaling”. Also, the Cmin at steady-state in data set [8] is 232 ng/mL and 471 nM. Also, in the data set on patients (setting [9]), the Events of diarrhea entry is “commonly reported” and the “Events of skin rash” value is “reported”. In the data set on patients (phase 2 study in desmoid patients conducted by the NCI (O'Sullivan Coyne, 2018)), the Follicular cysts result is listed as “observed”.
With “SEA-BCMA: non-fucosylated monoclonal anti-BCMA antibody, heavy chain SEQ ID NO: 13, light chain SEQ ID NO: 15”, the “Block of NF-κB signaling increased by Nirogacestat” value in data set [7] (20 μg/mL SEA-BCMA, 0.2 μM Nirogacestat, +/- 1 μg/ml APRIL) is “partially blocked”. For the same compound, the FcγRIII binding affinity result with FcγRIII is reported as “enhanced”. Moreover, the “Delayed-onset infusion-related reactions (IRRs)” value in the data set on patients with RRMM (dose escalation cohort) was “no instances”. For the same compound, in the data set with patients with RRMM (high doses, e.g. 800 mg or 1600 mg per dose, initial results), the “Safety profile at high doses” value is recorded as “tolerable safety profile”. In addition, the “MTD in dose escalation” value in the data set with patients with RRMM (human, in vivo) was “without exceeding MTD”.
